# Columns and labels:
# TEM-1 β-lactamase [1] = target: T1, TEM-1 β-lactamase (Escherichia coli, UniProt P62593); assay: TEM-1 β-lactamase inhibition assay (nitrocefin hydrolysis, 486 nm); assay type: biochemical
# Experimental: (§1) The inhibition of TEM-1 β-lactamase was determined spectrophotometrically. B-lactamase activity was followed by measuring the hydrolysis of nitrocefin, [3-(2,4-dinitrostyryl)-(6R, 7R)-7-(2-thienylacetamido)-ceph-3-em-4-carboxylic acid, E-isomer], (Calbiochem, San Diego, Calif., USA) at 486 nm. Inhibition assays were performed at 25° C. in 50 mM sodium phosphate, 5% DMSO, pH 7.0. […] Inhibitor was added to the enzyme and incubated for ten minutes before the addition of substrate. Inhibition constants (Ki) for the inhibitors are obtained at the desired temperature and solvent conditions by measuring the rate of substrate hydrolysis at increasing amounts of inhibitors.
# The competitive inhibition of β-lactamase was determined spectrophotometrically using a Varian (Walnut Creek, Calif.) Cary 100 UV-Visible spectrophotometer. β-lactamase activity was followed by measuring the hydrolysis of nitrocefin, [3-(2,4-dinitrostyryl)-(6R, 7R)-7-(2-thienylacetamido)-ceph-3-em-4-carboxylic acid, E-isomer], (Calbiochem, San Diego, Calif.) at 486 nm. Inhibition assays were performed at 25° C. in 50 mM sodium phosphate, 5% DMSO, pH 7.0. […] Penicillin G (Sigma, St. Louis, Mo.) was also used as a substrate to determine KM and kcat.
# Inhibitor was added to protein and incubated for ten minutes before the addition of substrate. Inhibition constants were determined by measuring the loss of P-lactamase activity with increasing inhibitor concentrations and fitting the data to standard equations for competitive inhibition.
# (§2) These methods can also be used to express and assay recombinant TEM-1 variant of β-lactamase.
# β-lactamase mutant E104K = β-lactamase mutant E104K (Escherichia coli, UniProt P62593, E102K); assay type: biochemical; details: number higher than 1 reflects a loss of potency against mutant
# Experimental: as §1
# (§3) Three of the most important mutations are M69I, R244S and E104K.
# β-lactamase mutant M69I = β-lactamase mutant M69I (Escherichia coli, UniProt P62593, M67I); assay type: biochemical; details: number higher than 1 reflects a loss of potency against mutant
# Experimental: as §1, §3
# β-lactamase mutant R244S = β-lactamase mutant R244S (Escherichia coli, UniProt P62593, R241S); assay type: biochemical; details: number higher than 1 reflects a loss of potency against mutant
# Experimental: as §1, §3
# β-lactamase wt = β-lactamase wt (Escherichia coli, UniProt P62593); assay: Isothermal titration calorimetry, binding enthalpy, wild type
# Experimental: (§4) The binding of the compounds of the present invention to β-lactamase was also measured by isothermal titration calorimetry.
# (§5) These experiments, in combination with the inhibition assays, indicate that the compounds identified in this disclosure bind to the wild type as well as drug resistant beta lactamases with favorable binding enthalpies. This is a very important characteristic from the point of view of further optimization since it facilitates the achievement of extremely high affinities and low susceptibilities to drug resistant mutations and naturally occurring polymorphisms.
# (§6) Isothermal titration calorimetry was performed on a high-precision VP-ITC titration calorimeter (Microcal Inc., Northampton, Mass.). β-Lactamase solutions were titrated with inhibitors in 50 mM sodium phosphate, 2% DMSO, pH 7.0, with β-lactamase concentrations ranging from 15 to 25 μM and inhibitor concentrations ranging from 300 to 1000 μM. The heat evolved from each injection was obtained by integrating the calorimetric signal. Heat of binding was obtained as the difference between the heat of reaction and the heat of inhibitor dilution. Data were analyzed using Origin 7.0 (OriginLab Corporation, Northampton, Mass.).
# β-lactamase M69I = β-lactamase M69I (Escherichia coli, UniProt P62593, M67I); assay: Isothermal titration calorimetry, binding enthalpy, M69I mutant
# Experimental: as §4, §5, §6
# β-lactamase E104K = β-lactamase E104K (Escherichia coli, UniProt P62593, E102K); assay: Isothermal titration calorimetry, binding enthalpy, E104K mutant
# Experimental: as §4, §5, §6
# β-lactamase R244S = β-lactamase R244S (Escherichia coli, UniProt P62593, R241S); assay: Isothermal titration calorimetry, binding enthalpy, R244S mutant
# Experimental: as §4, §5, §6
# TEM-1 β-lactamase [2] = target: T1, TEM-1 β-lactamase; assay: Isothermal titration calorimetry, binding to TEM-1 β-lactamase (Example 17); details: ITC
# Experimental: as §6, §2
# Also shown are the results obtained for β-lactamase variant TEM-1.
# [3] = tested on: methicillin resistant S. aureus ATCC 33591 (MRSA-ATCC); assay: MIC assay, broth microdilution, MRSA-ATCC; assay type: cell-based; details: for MIC: Staphylococcus aureus, 24 h
# Experimental: (1) methicillin resistant S. aureus ATCC 33591 (MRSA-ATCC). This strain was obtained from American Type Culture Collection (ATCC), Manassas, Md.;
# (§7) The strains were processed according to procedures recommended by ATCC, or procedures that are routinely used. Single colonies of each organism were picked for purification to generate pure working cultures. Prior to each experiment each strain was subcultured on a fresh Mueller-Hinton agar plate (MHA).
# (§8) Inocula for the MIC assays were prepared by transferring a tiny portion of one colony from a MHA plate to 2 ml of Mueller-Hinton broth (MHB) such that the estimated cell density was about 10^7 colony forming unit (CFU)/ml. This cell suspension was then further diluted 10-fold (to 10^6 CFU/ml) by transferring the 2 ml cell suspension to 18 ml of MHB. Addition of 50 μl of this dilute cell suspension to 50 μl of growth medium yielded the desired cell density, namely about 5×10^4 CFU/well, or 5×10^5 CFU/ml.
# (§9) The MIC value of oxacillin was determined using the broth microdilution procedure recommended by the National Committee of Clinical Laboratory Standards (NCCLS, 2000).
# (§10) The MIC experiments were performed in duplicate in 96-well microtiter plates using MHB. A stock solution of 2.6 mg/0.5 ml was prepared in dimethylsulfoxide (DMSO). A total of 8 two-fold serial dilutions were made with DMSO. Initial oxacillin doses used were (μg/ml): 64, 32, 16, 8, 4, 2, 1, and 0.5. Doses were adjusted in the confirmatory experiment, if needed, in order to establish an actual MIC value.
# (§11) To each well of a 96 well microtiter plate was added 47.5 μl of MHB. A volume of 2.5 μl of each dilution of oxacillin was then transferred to appropriate wells containing the medium. All wells, except the sterility control wells, were then inoculated with 50 μl of a diluted cell suspension to give a final volume of 100 μl and a final cell density of 5×10^4 CFU/well. The volume in the sterility control wells was adjusted to 100 μl with MHB. A sterile pipette tip was used to mix the contents of each well (one tip was used going from the low to the high concentration in the same column). The microtiter plates were covered with the lids and were placed in large Stratagene Big Blue plates (Cat. # 400041). Four large kimwipes moistened with tap water were placed near the edges of the Stratagene plates to prevent evaporation of the medium. The microtiter plates were incubated for at least 24 hours at 35° C. The plates were then evaluated for growth in each well. Controls included: medium sterility and negative control (medium and bacteria only).
# (§12) The procedure used to determine the antimicrobial activity of the compounds of the present invention was identical to the broth microdilution procedure described above with the exception of the preparation of the stock solutions. Stock solution at concentration of 40.96 mg/0.5 ml was prepared in DMSO for each of the compounds. A total of 8 two-fold dilutions were then made in DMSO. A volume of 2.5 μl of each dilution was delivered to appropriate wells. The initial doses used were (μg/ml): 512, 256, 128, 64, 32, 16, 8, and 4.
# (§13) A numerical code was used to evaluate the extent of growth as indicated below. • 0: absence of growth • 1: barely visible (faint) growth • 2: fair growth but less than the negative solvent control • 3: growth is equivalent to the negative solvent control.
# (§14) The lowest dose at which no visible growth is observed was determined to be the MIC value.
# (§15) MIC assays were performed with oxacillin and the four compounds. Each of the compounds was tested at the following 8 doses (μg/ml): 512, 256, 128, 64, 32, 16, 8, and 4. Oxacillin was tested at the following 8 doses (μg/ml): 64, 32, 16, 8, 4, 2, 1, and 0.5.
# [4] = tested on: methicillin sensitive S. aureus ATCC 25923 (MSSA); assay: MIC assay, broth microdilution, MSSA; assay type: cell-based; details: for MIC: Staphylococcus aureus, 24 h
# Experimental: (3) methicillin sensitive S. aureus ATCC 25923 (MSSA). This strain was obtained from ATCC and was used as a control.
# as §7, §8, §9, §10, §11, §12, §13, §14, §15
# [5] = tested on: methicillin resistant S. aureus from Stanford University Hospital (MRSA-SU); assay: MIC assay, broth microdilution, MRSA-SU; assay type: cell-based; details: for MIC: Staphylococcus aureus, MRSA, 24 h
# Description: (2) methicillin resistant S. aureus from Stanford University Hospital Clinical Microbiology/Virology Laboratory (MRSA-SU). […] Such Staphylococci are also resistant to all penicillins, and all cephalosporins, in addition to all β-lactamase inhibitor combinations (including ampicillin/sulbactarn, amoxicillin/clavulanic acid, piperacillin/tazobactam), imipenem, and meropenem; and
# as §7, §8, §9, §10, §11, §12, §13, §14, §15
# [6] = Ki, 25° C., 50 mM sodium phosphate, 5% DMSO, pH 7.0, enzyme 5 nM, nitrocefin 167 μM
# [7] = Ki from Lineweaver-Burke Analysis, values in parenthesis, Lineweaver-Burke analysis
Structure (SMILES),Ki (TEM-1 β-lactamase [1]; [6]) [µM],"Loss of potency: ratio of the inhibitory constant between mutant and wild type (Potencywt/Potencymutant), E104K (β-lactamase mutant E104K)","Loss of potency: ratio of the inhibitory constant between mutant and wild type (Potencywt/Potencymutant), M69I (β-lactamase mutant M69I)","Loss of potency: ratio of the inhibitory constant between mutant and wild type (Potencywt/Potencymutant), R244S (β-lactamase mutant R244S)",melting point [°C],Ki (TEM-1 β-lactamase [1]; [7]) [µM],ΔH wt (β-lactamase wt) [kcal/mol],ΔH M69I (β-lactamase M69I) [kcal/mol],ΔH E104K (β-lactamase E104K) [kcal/mol],ΔH R244S (β-lactamase R244S) [kcal/mol],further results
"O=C(Oc1ccc([N+](=O)[O-])cc1)c1cc(B(O)O)cc([N+](=O)[O-])c1 [Compound (1a), 3-(4-Nitrophenoxycarbonyl)-5-nitrophenylboronic acid]",80 ± 9,0.39,0.43,0.44,205 to 207,,,,,,
"O=C(Oc1cccc([N+](=O)[O-])c1)c1cc(B(O)O)cc([N+](=O)[O-])c1 [Compound (1c), 3-(3-Nitrophenoxycarbonyl)-5-nitrophenylboronic acid]",39 ± 7,0.56,1.0,0.52,185 to 187,,,,,,
"COc1ccc(OC(=O)c2cc(B(O)O)cc([N+](=O)[O-])c2)cc1 [Compound (1d), 3-(4-Methoxyphenoxycarbonyl)-5-nitrophenylboronic acid]",42 ± 7,0.55,0.60,0.62,67,,,,,,
"N#Cc1ccccc1OC(=O)c1cc(B(O)O)cc([N+](=O)[O-])c1 [Compound (1g), 3-(2-Cyanophenoxycarbonyl)-5-nitrophenylboronic acid]",37 ± 3,0.32,0.40,0.26,,1.37,-5.52,-2.46,-6.397,-8.2,
"O=C(Oc1c(Cl)cccc1[N+](=O)[O-])c1cc(B(O)O)cc([N+](=O)[O-])c1 [Compound (1h), 3-(2-Chloro-6-nitrophenoxycarbonyl)-5-nitrophenylboronic acid]",9.5 ± 0.8,0.77,1.2,0.86,,0.65,-1.14,-0.953,-1.896,-11.931,"Ki (TEM-1 β-lactamase [1]; Ki, TEM-1 β-lactamase): 9.5 µM; ΔG (TEM-1 β-lactamase [2]): -6.614 kcal/mol; ΔH (TEM-1 β-lactamase [2]): -1.14 kcal/mol; −TΔS (TEM-1 β-lactamase [2]): -5.474 kcal/mol"
"O=C(Oc1ccccc1Cl)c1cc(B(O)O)cc([N+](=O)[O-])c1 [Compound (1j), 3-(2-Chlorophenoxycarbonyl)-5-nitrophenylboronic acid]",28 ± 2,0.15,0.33,0.37,,1.31,-2.145,-1.693,-2.756,-6.877,
O=C(O)c1cccc(B(O)O)c1 [Compound F1203],,,,,,,,,,,"bacteriotoxicity at high dose ([3]; 512 μl/ml, MRSA-ATCC): not bacteriotoxic; MIC [3]: > 512 µg/mL; bacteriotoxicity at high dose ([4]; 512 μl/ml, MSSA): not bacteriotoxic; MIC [4]: > 512 µg/mL; bacteriotoxicity at high dose ([5]; 512 μl/ml, MRSA-SU): not bacteriotoxic; MIC [5]: > 512 µg/mL"
O=C(Oc1ccccc1[N+](=O)[O-])c1cc(B(O)O)cc([N+](=O)[O-])c1 [Compound F1204],,,,,,,,,,,MIC [3]: 256 µg/mL; MIC [4]: 512 µg/mL; MIC [5]: 512 µg/mL
COC(=O)c1cc(B(O)O)cc([N+](=O)[O-])c1 [Compound F1212],,,,,,,-4.7,-3.3,-4.5,-8.9,"Ki (TEM-1 β-lactamase [1]; 25° C., 50 mM sodium phosphate, 5% DMSO, pH 7.0, enzyme 5 nM, nitrocefin 167 μM): 95 µM"
